Results from ChEMBL document CHEMBL1781901, “Toluidinesulfonamide hypoxia-induced factor 1 inhibitors: alleviating drug-drug interactions through use of PubChem data and comparative molecular field analysis guided synthesis” (J Med Chem, 2011).

Tests used:
[1] = Inhibition of HIF-1 in human deferoxamine treated HCT-116 cells expressing HRE-bla gene pretreated for 30 mins before deferoxamine challenge measured after 24 hrs by fluorometric analysis; type: cell-based
Cytochrome P450 2C9 = Cytochrome P450 2C9 (Homo sapiens, UniProt P11712); assay: Inhibition of CYP2C9 after 30 mins by luminescence assay; type: ADME
Cytochrome P450 2C9, sequence (P11712 whole entry): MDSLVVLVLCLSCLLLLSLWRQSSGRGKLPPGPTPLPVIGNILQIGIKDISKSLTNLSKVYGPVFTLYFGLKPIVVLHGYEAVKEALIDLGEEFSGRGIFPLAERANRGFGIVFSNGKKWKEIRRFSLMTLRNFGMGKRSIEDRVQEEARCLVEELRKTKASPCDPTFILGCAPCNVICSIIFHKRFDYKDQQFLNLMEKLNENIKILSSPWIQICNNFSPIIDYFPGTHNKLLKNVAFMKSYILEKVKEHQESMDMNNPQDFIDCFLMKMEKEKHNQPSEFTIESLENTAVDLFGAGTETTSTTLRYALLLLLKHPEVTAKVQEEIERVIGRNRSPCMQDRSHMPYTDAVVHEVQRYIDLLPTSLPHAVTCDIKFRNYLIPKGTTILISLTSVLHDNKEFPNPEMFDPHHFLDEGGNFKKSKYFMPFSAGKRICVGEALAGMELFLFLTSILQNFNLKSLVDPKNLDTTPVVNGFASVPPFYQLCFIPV

COC(=O)c1ccc(C)c(NS(=O)(=O)c2ccc(NC(C)=O)cc2)c1
pIC50 [1]: 4.7 | EC50 (Cytochrome P450 2C9): 0.251 µM

COC(=O)c1ccc(C)c(NS(=O)(=O)c2ccc(OC)cc2)c1
pIC50 [1]: 7.2 | EC50 (Cytochrome P450 2C9): 3.98 µM

COC(=O)c1ccc(C)c(NS(=O)(=O)c2ccc(OC)c(OC)c2)c1
pIC50 [1]: < 5 | EC50 (Cytochrome P450 2C9): 2.51 µM

COC(=O)c1ccc(OC)c(NS(=O)(=O)c2ccc(OC)cc2)c1
pIC50 [1]: 5.5 | EC50 (Cytochrome P450 2C9): 39.8 µM

COC(=O)c1ccc(C)c(N(C)S(=O)(=O)c2ccc(C)cc2)c1
pIC50 [1]: 5.8 | EC50 (Cytochrome P450 2C9): 15.8 µM

COC(=O)c1ccc(C)c(N(C)S(=O)(=O)c2ccc(OC)cc2)c1
pIC50 [1]: 6.2 | EC50 (Cytochrome P450 2C9): 25.1 µM

COC(=O)c1ccc2c(c1)N(S(=O)(=O)c1ccc(C)cc1)CCO2
pIC50 [1]: 7 | EC50 (Cytochrome P450 2C9): 3.98 µM

COC(=O)c1ccc(C)c(NS(=O)(=O)c2ccc(C)cc2)c1
pIC50 [1]: 7.4 | EC50 (Cytochrome P450 2C9): 1.58 µM
